Measured values as given in patent US8309515B2, “Poly(ethylene oxide)-block-poly(ester) block copolymers” (priority 2006, dated 2012).

Experiments:
[1] = test system: B16-BL6 mouse melanoma cells; assay: In vitro cytotoxicity, MTT assay; format: cell-based
Protocol: In vitro cytotoxicity activity of PEO-b-P(CL-DOX) and DOX loaded PEO-b-P(CL-DOX) block copolymer micelles were investigated against B16-BL6 mouse melanoma cells using MTT assay. […] After this time, MTT solution (20 μL; 5 mg/ml in sterile-filtered PBS) was added to each well and the plates were reincubated for a further 3 h. The formazan crystals were dissolved in DMSO, and the concentration was read by a Power Wave×340 microplate reader (Bio-Tek Instruments, Inc. USA) at 550 nm.

rat red blood cells = assay: In vitro hemolysis against rat red blood cells; settings: 0.1% triton-X 100, positive control
Protocol: Blood was freshly obtained from a Sprague-Dawley rat by cardiac puncture, mixed with sterile isotonic PBS and centrifuged at 3,000 rpm for 5 minutes. The supernatant were pipetted out and the red blood cells were diluted with isotonic sterile PBS (pH: 7.4). The proper dilution factor was estimated from the UV-Vis absorbance of hemoglobin at 576 nm in the supernatant after RBCs were lysed by 0.1% triton X 100. A properly diluted sample of RBCs gave an absorbance of 0.4 to 0.5. […] After incubation the samples were kept in ice bath to stop further hemolysis. The samples were centrifuged at 14,000 rpm for 30 sec to precipitate the intact RBC cells. The supernatant was separated and analyzed for hemoglobin by UV-Vis spectrophotometer at 576 nm. The percentage of hemolyzed RBC was calculated using the equation: % of hemolysis=100 (Abs−Abs0)/(Abs100-Abs0), where Abs, Abs0 and Abs100 are the absorbance for the sample, control with no polymer or DOX and control with 0.1% triton X 100, respectively.

COc1cccc2c1C(=O)c1c(O)c3c(c(O)c1C2=O)C[C@@](O)(C(=O)CO)C[C@@H]3O[C@H]1C[C@H](N)[C@H](O)[C@H](C)O1 [free DOX, doxorubicin]
times lower IC50 / higher cytotoxicity than PEO-b-P(CL-DOX) micelles ([1]; 24 h incubation): 50 times
times lower IC50 than PEO-b-P(CL-DOX) micelles ([1]; 48 h incubation): 15 times

triton-X 100
hemolysis (rat red blood cells): 100%
